These results are taken from patent publication US11793880B2, “Conjugates of quaternized tubulysin compounds” (Seagen Inc., priority 2015, dated 2023).

pIC50: −log10 of the molar value. Like-named read-outs stand apart in the source and are kept apart here. Bounds are passed on as bounds.

The subject of assay [1] is antigen-negative Hep3B hepatocellular carcinoma cells. The settings on record: Table 5, cAC10 ADCs 8 drugs/mAb, MDPR-Linker-TubM. The procedure: (§1) In vitro assays. Cells cultured in log-phase growth were seeded for 24 h in 96-well plates containing 150 μL RPMI 1640 supplemented with 20% FBS. Serial dilutions of antibody-drug conjugates in cell culture media were prepared at 4× working concentrations; 50 μL of each dilution was added to the 96-well plates. […] After 96 h, growth inhibition was assessed by CellTiter-Glo® (Promega, Madison, WI) and luminescence was measured on a plate reader.
(§2) Several hydrophilic linker constructs incorporating quaternized tubulysin M were prepared and evaluated in vitro; the results are shown in Table 5. The data (IC50 values in ng/mL) indicate that Conjugates prepared from Drug Linker compounds having quaternized tubulysin M linked via a hydrophilic ValGlu dipeptide with (95) or without (91) a PEG12 side chain, or linked via a hydrophilic glucuronide (82) provide ADCs that are equipotent to the ValAla comparator (15).

In a further assay the test system is DEL, ALCL. As to the method:
as §1
(§3) In vitro assays—tubulysin ADCs. ADCs were prepared by t Ell reduction of interchain disulfides to reveal 8-conjugatable cysteines/antibody that were alkylated through Michael addition with the maleimide-containing Drug Linker compounds. […] conjugates hearing quaternized tubulysin ethers with and without a PEG12 side-chain were compared to their tubulysin M analogs.
as §2

The next assay concerns DEL/BVR, MDR + ALCL. The procedure: as §1, §3, §2
In assay [2] the test system is L428, MDR + HL. The procedure: as §1, §3, §2
The test system of assay [3] is L540cy, HL. The procedure:
as §1, §3, §2

The test system of assay [4] is Karpas299, ALCL. As to the kind of experiment: In vitro assays - tubulysin ADCs (cAC10, anti-CD30). Type of assay: cell-based. The settings on record: Table 4; cAC10 ADCs DAR 8, 96 h.
The test system of assay [5] is Karpas299, L540cy, L428, HL60, HL60/RV cell lines. As to the kind of experiment: In vitro assays - tubulysin free drugs, statements across the cell line panel. Type of assay: cell-based. The note with it: Table 2 cell lines, 96 hour exposure. The procedure: In vitro assays. Cells cultured in log-phase growth were seeded for 24 h in 96-well plates containing 150 μL RPMI 1640 supplemented with 20% FBS. Serial dilutions of antibody-drug conjugates in cell culture media were prepared at 4× working concentrations; 50 μL of each dilution was added to the 96-well plates. Following addition of ADC, cells were incubated with test articles for 4 d at 37° C. After 96 h, growth inhibition was assessed by CellTiter-Glo® (Promega, Madison, WI) and luminescence was measured on a plate reader. The IC50 value, determined in triplicate, is defined here as the concentration that results in a 50% reduction in cell growth relative to untreated controls.
In vitro assays—tubulysin free drugs. Cells were treated for 96 hours with tubulysin ether analogs (40-42) or tubulysin M (7), then assessed for viability as described in the methods.
The ethyl ether and tubulysin M maintained the highest level of potency in the context of MDR+L428 and HL60/RV cell lines.
The tubulysin ester analogs (133-137) and unsaturated ether analogs (176-179) were tested in vitro for potency relative to tubulysin M (7), following a 96 hour exposure. As shown by IC50 values (nM) of Table 2, Tubulysin esters 133-136 performed comparably to tubulysin M, with similar potencies across of the cell lines.

Assay [6] relates to L428, MDR + HL. As to the kind of experiment: In vitro assays - tubulysin free drugs, CellTiter-Glo growth inhibition. The note with it: Homo sapiens, L-428, 96 h, Table 2; free drug, 96 hour exposure. Type of assay: cell-based. (In general: Cellular ATP, detected with luciferase, serves as a proxy for viable cell number.)
For assay [7], the system named is Karpas299, ALCL. The assay is described as above. The note with it: Homo sapiens, KARPAS-299, 96 h, Table 2; free drug, 96 hour exposure. Type of assay: cell-based.
Another assay concerns HL60, AML. Described as above. The settings on record: Homo sapiens, HL-60, 96 h, Table 2; free drug, 96 hour exposure. Type of assay: cell-based.
Assay [8] concerns L540cy, HL. The description is as above. The assay is classed as cell-based. The settings on record: L540cy, 96 h, Table 2; free drug, 96 hour exposure.
The subject of the next assay is HL60/RV, MDR + AML. Described as above. Type of assay: cell-based. The note with it: Homo sapiens, HL-60, 96 h, Table 2; free drug, 96 hour exposure.
[9] abbreviates: Table 5, cAC10 ADCs 8 drugs/mAb, MDPR-Linker-TubM.
Setting [10] is: Table 4, cAC10 ADCs DAR 8, 96 h.

Consider `CC[C@H](C)[C@H](NC(=O)[C@H]1CCCC[N+]1(C)Cc1ccc(NC(=O)[C@H](C)NC(=O)[C@@H](NC(=O)[C@H](CN)N2C(=O)C=CC2=O)C(C)C)cc1)C(=O)N(C)[C@H](C[C@@H](OC(C)=O)c1nc(C(=O)N[C@@H](Cc2ccccc2)C[C@H](C)C(=O)O)cs1)C(C)C` (stereo partly drawn) [Compound 15, (2R)-2-(((2S,3S)-1-(((1R,3R)-1-acetoxy-1-(4-(((2R,4S)-4-carboxy-1-phenylpentan-2-yl)carbamoyl)thiazol-2-yl)-4-methylpentan-3-yl)(methyl)amino)-3-methyl-1-oxopentan-2-yl)carbamoyl)-1-(4-((S)-2-((S)-2-((S)-3-amino-2-(2,5-dioxo-2,5-dihydro-1H-pyrrol-1-yl)propanamido)-3-methylbutanamido)propanamido)benzyl)-1-methylpiperidin-1-ium], for which the “IC50, Hep3B CD30- HCC” value in assay [1] is on record as above 1000 ng/mL. In the assay with DEL, ALCL (setting [9]), the “IC50, DEL, ALCL” value came out at 0.3 ng/mL. The “IC50, DEL/BVR, MDR + ALCL” value in the assay on DEL/BVR, MDR + ALCL (setting [9]) was 4 ng/mL. Further, in the assay on L428, MDR + HL [2] (setting [9]), the “IC50, L428, MDR + HL” value came out at 1 ng/mL. The “IC50, L540cy, HL” value in the assay on L540cy, HL [3] (setting [9]) is recorded as 2 ng/mL.
On to `CC[C@H](C)[C@H](NC(=O)[C@H]1CCCC[N+]1(C)Cc1ccc(O[C@@H]2O[C@H](C(=O)O)[C@@H](O)[C@H](O)[C@H]2O)c(NC(=O)CCNC(=O)[C@H](CN)N2C(=O)C=CC2=O)c1)C(=O)N(C)[C@H](C[C@@H](OC)c1nc(C(=O)N[C@@H](Cc2ccccc2)C[C@H](C)C(=O)O)cs1)C(C)C` (stereo partly drawn) [Compound 56, (2R)-1-(3-(3-((S)-3-amino-2-(2,5-dioxo-2,5-dihydro-1H-pyrrol-1-yl)propanamido)propanamido)-4-(((2S,3R,4S,5S,6S)-6-carboxy-3,4,5-trihydroxytetrahydro-2H-pyran-2-yl)oxy)benzyl)-2-(((2S,3S)-1-(((1R,3R)-1-(4-(((2R,4S)-4-carboxy-1-phenylpentan-2-yl)carbamoyl)thiazol-2-yl)-1-methoxy-4-methylpentan-3-yl)(methyl)amino)-3-methyl-1-oxopentan-2-yl)carbamoyl)-1-methylpiperidin-1-ium], for which the “IC50, Karpas299, ALCL” value in the assay on Karpas299, ALCL [4] is 3 ng/mL. The “IC50, DEL/BVR, MDR + ALCL” value in the assay on DEL/BVR, MDR + ALCL (setting [10]) was determined as 20 ng/mL. Further, in the assay with L428, MDR + HL [2] (setting [10]), the “IC50, L428, MDR + HL” value is listed as above 1000 ng/mL. Moreover, the “IC50, L540cy, HL” value in the assay on L540cy, HL [3] (setting [10]) turned out to be 10 ng/mL.
Taken in the same sequence, the figures for `CCO[C@H](C[C@H](C(C)C)N(C)C(=O)[C@@H](NC(=O)[C@H]1CCCC[N+]1(C)Cc1ccc(O[C@@H]2O[C@H](C(=O)O)[C@@H](O)[C@H](O)[C@H]2O)c(NC(=O)CCNC(=O)[C@H](CCCCNC(=O)CCOCCOCCOCCOCCOCCOCCOCCOCCOCCOCCOCCOC)NC(=O)[C@H](CN)N2C(=O)C=CC2=O)c1)[C@@H](C)CC)c1nc(C(=O)N[C@@H](Cc2ccccc2)C[C@H](C)C(=O)O)cs1` (stereo partly shown) [Compound 66] were 1 ng/mL, 6 ng/mL, 6 ng/mL and 5 ng/mL.
Taken in the same sequence, the figures for `CCCO[C@H](C[C@H](C(C)C)N(C)C(=O)[C@@H](NC(=O)[C@H]1CCCC[N+]1(C)Cc1ccc(O[C@@H]2O[C@H](C(=O)O)[C@@H](O)[C@H](O)[C@H]2O)c(NC(=O)CCNC(=O)[C@H](CCCCNC(=O)CCOCCOCCOCCOCCOCCOCCOCCOCCOCCOCCOCCOC)NC(=O)[C@H](CN)N2C(=O)C=CC2=O)c1)[C@@H](C)CC)c1nc(C(=O)N[C@@H](Cc2ccccc2)C[C@H](C)C(=O)O)cs1` (stereo partly shown) [Compound 67] were 4 ng/mL, 12 ng/mL, above 1000 ng/mL and 10 ng/mL.
Consider `CC[C@H](C)[C@H](NC(=O)[C@H]1CCCC[N+]1(C)Cc1ccc(O[C@@H]2O[C@H](C(=O)O)[C@@H](O)[C@H](O)[C@H]2O)c(NC(=O)CCNC(=O)[C@H](CCCCNC(=O)CCOCCOCCOCCOCCOCCOCCOCCOCCOCCOCCOCCOC)NC(=O)[C@H](CN)N2C(=O)C=CC2=O)c1)C(=O)N(C)[C@H](C[C@@H](OC(C)=O)c1nc(C(=O)N[C@@H](Cc2ccccc2)C[C@H](C)C(=O)O)cs1)C(C)C` (stereo partly shown) [Compound 99], for which the “IC50, Karpas299, ALCL” value in the assay on Karpas299, ALCL [4] is recorded as 0.3 ng/mL. In addition, the “IC50, DEL, ALCL” value with DEL, ALCL (setting [10]) was 1 ng/mL. In addition, the “IC50, DEL/BVR, MDR + ALCL” value in the assay with DEL/BVR, MDR + ALCL (setting [10]) is recorded as 2 ng/mL. Moreover, the “IC50, L428, MDR + HL” value with L428, MDR + HL [2] (setting [10]) is given as 0.5 ng/mL. Besides, the “IC50, L540cy, HL” value with L540cy, HL [3] (setting [10]) stood at 2 ng/mL.
For orientation: pIC50 means the negative decadic logarithm of the IC50, by convention in mol/L. On to `C=C(C)CO[C@H](C[C@H](C(C)C)N(C)C(=O)[C@@H](NC(=O)[C@H]1CCCCN1C)[C@@H](C)CC)c1nc(C(=O)N[C@@H](Cc2ccccc2)C[C@H](C)C(=O)O)cs1` [Compound 176, (2S,4R)-4-(2-((1R,3R)-3-((2S,3S)—N,3-dimethyl-2-((R)-1-methylpiperidine-2-carboxamido)pentanamido)-4-methyl-1-((2-methylallyl)oxy)pentyl)thiazole-4-carboxamido)-2-methyl-5-phenylpentanoic acid], for which the “potency relative to tubulysin M (7), in words” value (shortened to “potency relative to tubulysin M”) in [5] was “comparable potency”. The pIC50 is 9.92 in the assay on L428, MDR + HL [6]; 9.92 with Karpas299, ALCL [7]; 10.15 in the assay on HL60, AML; 10.22 with L540cy, HL [8]; 8.22 in the assay with HL60/RV, MDR + AML.
For `C=CCO[C@H](C[C@H](C(C)C)N(C)C(=O)[C@@H](NC(=O)[C@H]1CCCCN1C)[C@@H](C)CC)c1nc(C(=O)N[C@@H](Cc2ccccc2)C[C@H](C)C(=O)O)cs1` [Compound 177, (2S,4R)-4-(2-((1R,3R)-1-(allyloxy)-3-((2S,3S)—N,3-dimethyl-2-((R)-1-methylpiperidine-2-carboxamido)pentanamido)-4-methylpentyl)thiazole-4-carboxamido)-2-methyl-5-phenylpentanoic acid], the “potency relative to tubulysin M” value in assay [5] was “comparable potency”. For the same compound, the pIC50 is 9.82 with L428, MDR + HL [6]; 10.70 in the assay on Karpas299, ALCL [7]; 10.00 in the assay with HL60, AML; 9.92 in the assay with L540cy, HL [8]; 8.05 in the assay with HL60/RV, MDR + AML.
Regarding `C#CCO[C@H](C[C@H](C(C)C)N(C)C(=O)[C@@H](NC(=O)[C@H]1CCCCN1C)[C@@H](C)CC)c1nc(C(=O)N[C@@H](Cc2ccccc2)C[C@H](C)C(=O)O)cs1` [Compound 178, (2S,4R)-4-(2-((1R,3R)-3-((2S,3S)—N,3-dimethyl-2-((R)-1-methylpiperidine-2-carboxamido)pentanamido)-4-methyl-1-(prop-2-yn-1-yloxy)pentyl)thiazole-4-carboxamido)-2-methyl-5-phenylpentanoic acid], in assay [5], the “potency relative to tubulysin M” value was “attenuated in potency”. Also, the pIC50 in the assay on L428, MDR + HL [6] was 9.39; with Karpas299, ALCL [7], 10.30; in the assay with HL60, AML it was 9.70; in the assay on L540cy, HL [8], 9.77; with HL60/RV, MDR + AML it was 7.57.
For the compound `CC[C@H](C)[C@H](NC(=O)[C@H]1CCCCN1C)C(=O)N(C)[C@H](C[C@@H](OCc1ccccc1)c1nc(C(=O)N[C@@H](Cc2ccccc2)C[C@H](C)C(=O)O)cs1)C(C)C` [Compound 179, (2S,4R)-4-(2-((1R,3R)-1-(benzyloxy)-3-((2S,3S)—N,3-dimethyl-2-((R)-1-methylpiperidine-2-carboxamido)pentanamido)-4-methylpentyl)thiazole-4-carboxamido)-2-methyl-5-phenylpentanoic acid], in [5], the “potency relative to tubulysin M” value is “attenuated in potency”. Further, the pIC50 in the assay with L428, MDR + HL [6] is 9.24; in the assay on Karpas299, ALCL [7], 10.10; with HL60, AML, 9.40; in the assay on L540cy, HL [8], 9.40; in the assay with HL60/RV, MDR + AML, 7.62.
